Consider six compounds from ChEMBL document CHEMBL1201862, “PubChem BioAssay data set” (2004).

The structures appear in SMILES notation.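 The compound was tested at five concentrations on cells cultured in 96-well plates, with a 48-hour exposure period. GI50 is the concentration that inhibits growth by half.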 Active and inactive are the calls of the source. No stated cut-off is given here; in the data, active = GI50 up to about 1.1 µM and inactive = higher.

Some test systems named below: OVCAR-4; CAKI-1; SK-OV-3; HL-60; UO-31; LOX IMVI; MCF7; OVCAR-8; RPMI-8226; SN12C; HT-29; M14; COLO 205; UACC-62; KM12; IGROV-1; SR; OVCAR-5; SF-295; HOP-62.
Assay in all cases: NCI-60 cell line screen, 48 h

Turning to `CN(C)/N=N/c1ccc(NC=O)cc1`, the GI50 in the assay on OVCAR-4 was > 100 µM (inactive); in the assay on CAKI-1, > 100 µM (inactive); in the assay with SK-OV-3 it was > 100 µM (inactive); in the assay with HL-60, 51.9 µM (inactive); in the assay on UO-31 it was 82.8 µM (inactive); with LOX IMVI, > 100 µM (inactive). Moreover, the GI50 in the assay with MCF7 is > 100 µM (inactive); in the assay on OVCAR-8, > 100 µM (inactive); in the assay on RPMI-8226, 69 µM (inactive); in the assay on SN12C it was > 100 µM (inactive); with HT-29 it was > 100 µM (inactive); in the assay on M14, > 100 µM (inactive). In addition, the GI50 with COLO 205 was > 100 µM (inactive); in the assay on UACC-62, 40.6 µM (inactive); in the assay with KM12, > 100 µM (inactive); in the assay with IGROV-1, > 100 µM (inactive); in the assay with SR, 48.6 µM (inactive); in the assay with OVCAR-5 it was 90.4 µM (inactive). For the same compound, the GI50 with SF-295 and in the assay on HOP-62 was > 100 µM (inactive) in each case.
On to `OC[P+](CO)(CO)C12CC3CC(CC(C3)C1)C2`, for which the GI50 in the assay with OVCAR-4 was > 48.3 µM (inactive); with CAKI-1, > 100 µM (inactive); with SK-OV-3 it was > 100 µM (inactive); in the assay on HL-60, 10.3 µM (inactive); in the assay on UO-31 it was > 78.3 µM (inactive); in the assay on LOX IMVI, 4.67 µM (inactive). Further, the GI50 in the assay on MCF7 is > 100 µM (inactive); in the assay with OVCAR-8, > 100 µM (inactive); with RPMI-8226, 21.9 µM (inactive); in the assay with SN12C, > 100 µM (inactive); in the assay on HT-29 it was 48.5 µM (inactive); in the assay with M14 it was > 100 µM (inactive). Besides, the GI50 was > 100 µM (inactive) in the assay on COLO 205; > 100 µM (inactive) in the assay on UACC-62; > 100 µM (inactive) with KM12; 4.85 µM (inactive) with IGROV-1; 16.7 µM (inactive) in the assay with SR; > 100 µM (inactive) with OVCAR-5. Moreover, the GI50 was > 30.1 µM (inactive) with SF-295 and > 100 µM (inactive) with HOP-62.
Consider `C=CC1=C(C)c2cc3[nH]c(c4c5nc(cc6[nH]c(cc1n2)c(C)c6CC)C=C5C(=O)C4C(=O)OC)C(CCC(=O)OC/C=C(\C)CCCC(C)CCCC(C)CCCC(C)C)C3C.C=CC1=C(C)c2cc3[nH]c(c4c5nc(cc6[nH]c(cc1n2)c(C=O)c6CC)C=C5C(=O)C4C(=O)OC)C(CCC(=O)OC/C=C(\C)CCCC(C)CCCC(C)CCCC(C)C)C3C` (stereo not given), for which the GI50 is > 100 µM (inactive) with OVCAR-4; > 100 µM (inactive) in the assay on CAKI-1; > 100 µM (inactive) with SK-OV-3; 10 µM (inactive) with HL-60; > 100 µM (inactive) in the assay on UO-31; > 100 µM (inactive) in the assay on LOX IMVI. In addition, the GI50 is > 100 µM (inactive) in the assay with MCF7; 43 µM (inactive) in the assay with OVCAR-8; > 100 µM (inactive) in the assay on RPMI-8226; > 100 µM (inactive) with SN12C; > 100 µM (inactive) with HT-29; > 100 µM (inactive) in the assay with M14. In addition, the GI50 is 43.9 µM (inactive) in the assay with COLO 205; > 100 µM (inactive) with UACC-62; > 100 µM (inactive) with KM12; 38.9 µM (inactive) with IGROV-1; > 100 µM (inactive) with SR; > 100 µM (inactive) in the assay on OVCAR-5. In addition, the GI50 with SF-295 and in the assay with HOP-62 was > 100 µM (inactive) throughout.
On to `Cc1ccc2c(O)cc(-c3sccc3C)nc2n1`, for which the GI50 was 9.79 µM (inactive) in the assay with OVCAR-4; 0.792 µM (active) in the assay with CAKI-1; 1.45 µM (inactive) in the assay with SK-OV-3; 0.174 µM (active) with HL-60; 1.52 µM (inactive) with UO-31; 0.723 µM (active) in the assay on LOX IMVI. Besides, the GI50 in the assay on MCF7 was 0.315 µM (active); with OVCAR-8 it was 1.99 µM (inactive); with RPMI-8226 it was 0.444 µM (active); in the assay with SN12C, 1.67 µM (inactive); with HT-29, 1.33 µM (inactive); in the assay with M14, 0.438 µM (active). The GI50 with COLO 205 was 0.37 µM (active); with UACC-62, 0.9 µM (active); with KM12, 0.719 µM (active); in the assay on IGROV-1, 0.625 µM (active); with SR it was 0.122 µM (active); with OVCAR-5, 1.67 µM (inactive). Also, the GI50 is 0.497 µM (active) in the assay on SF-295 and 2.1 µM (inactive) in the assay with HOP-62.
With `CCOC(=O)/C(SC#N)=C(/N)N1CCCC1`, the GI50 in the assay on OVCAR-4, in the assay on CAKI-1, in the assay on SK-OV-3, in the assay on HL-60, in the assay with UO-31 and with LOX IMVI was > 100 µM (inactive) throughout. For the same compound, the GI50 with MCF7, in the assay on OVCAR-8, with RPMI-8226, in the assay on SN12C, with HT-29 and in the assay with M14 was > 100 µM (inactive) throughout. Besides, the GI50 in the assay on COLO 205, in the assay on UACC-62, in the assay on KM12, in the assay on IGROV-1, in the assay with SR and with OVCAR-5 was > 100 µM (inactive) throughout. The GI50 in the assay with SF-295 and in the assay on HOP-62 was > 100 µM (inactive) in each case.
Take `CNC(=S)N/N=C(\C)c1nc2cccnc2[nH]1`: the GI50 with OVCAR-4 is 4.12 µM (inactive); with CAKI-1, 33.8 µM (inactive); in the assay with SK-OV-3, 31.8 µM (inactive); in the assay on HL-60, 17.6 µM (inactive); in the assay with UO-31, 9.25 µM (inactive); in the assay with LOX IMVI, 43.6 µM (inactive). Moreover, the GI50 is 34.3 µM (inactive) with MCF7; 48.9 µM (inactive) with OVCAR-8; 71.9 µM (inactive) in the assay on RPMI-8226; 98.2 µM (inactive) in the assay on SN12C; 36.8 µM (inactive) in the assay on HT-29; 45.2 µM (inactive) in the assay on M14. In addition, the GI50 is 33.5 µM (inactive) in the assay on COLO 205; 6.34 µM (inactive) with UACC-62; 46.6 µM (inactive) in the assay with KM12; 62.7 µM (inactive) with IGROV-1; 28.4 µM (inactive) in the assay with SR; 30.8 µM (inactive) with OVCAR-5. In addition, the GI50 in the assay with SF-295 is 30.3 µM (inactive); in the assay with HOP-62 it was 25.6 µM (inactive).
